Assay results as given in patent US20070203133A1, “Substituted 5,12-diaza-benzoanthracene analogues” (Neurogen Corporation, priority 2004, published 2007).
pIC50, pKi: −log10 of the molar value.

Biological target: VR (Homo sapiens, UniProt Q8NER1)
Test: not given
Settings: binds to VR with no more than moderate affinity; typical value; cited from earlier work

Chain of VR (Q8NER1 whole entry): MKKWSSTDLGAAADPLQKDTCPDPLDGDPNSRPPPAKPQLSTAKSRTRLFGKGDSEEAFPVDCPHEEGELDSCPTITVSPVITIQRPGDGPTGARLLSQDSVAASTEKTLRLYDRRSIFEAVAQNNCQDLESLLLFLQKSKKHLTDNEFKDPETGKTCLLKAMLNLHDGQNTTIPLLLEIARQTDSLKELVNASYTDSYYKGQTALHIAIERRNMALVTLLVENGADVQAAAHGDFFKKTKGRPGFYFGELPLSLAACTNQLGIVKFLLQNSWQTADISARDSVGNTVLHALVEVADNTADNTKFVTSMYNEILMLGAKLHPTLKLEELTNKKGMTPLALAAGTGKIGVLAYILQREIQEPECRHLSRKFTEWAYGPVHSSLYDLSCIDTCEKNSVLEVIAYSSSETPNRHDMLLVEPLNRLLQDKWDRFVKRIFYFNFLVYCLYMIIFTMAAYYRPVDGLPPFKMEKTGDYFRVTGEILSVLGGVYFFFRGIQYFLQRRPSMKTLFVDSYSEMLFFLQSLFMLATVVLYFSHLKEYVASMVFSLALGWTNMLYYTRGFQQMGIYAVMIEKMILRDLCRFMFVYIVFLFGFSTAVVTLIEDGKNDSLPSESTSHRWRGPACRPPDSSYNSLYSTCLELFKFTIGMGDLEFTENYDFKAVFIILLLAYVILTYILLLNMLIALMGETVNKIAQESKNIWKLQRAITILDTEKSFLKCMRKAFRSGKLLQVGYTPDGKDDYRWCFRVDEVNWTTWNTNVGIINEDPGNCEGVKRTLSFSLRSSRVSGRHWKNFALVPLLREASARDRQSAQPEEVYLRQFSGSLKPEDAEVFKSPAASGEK

Row | SMILES | pKi
1 | Cl.Cl.Cl.Cl.Cl.Cl.N.N.N.N.N.N.N.N.N.N.N.N.N.N.[O-2].[O-2].[Ru+3].[Ru+3].[Ru+4] [ruthenium red] | ≤ 3.85

Biological target: T1, human capsaicin receptor (Homo sapiens, UniProt Q8NER1)
T1 construct: transfected with the pBK-CMV expression construct encoding the full length human capsaicin receptor; expressed in transfected cells; host or cells: HEK293, stably transfected with the pBK-CMV construct
Test: Calcium mobilization assay, determination of antagonist activity
Format: cell-based
Settings: 50% decrease in the fluorescence response of cells expressing human capsaicin receptor exposed to capsaicin
Description: A cDNA encoding full length human capsaicin receptor (SEQ ID NO:1, 2 or 3 of U.S. Pat. No. 6,482,611) is subcloned in the plasmid pBK-CMV (Stratagene, La Jolla, Calif.) for recombinant expression in mammalian cells.
Human embryonic kidney (HEK293) cells are transfected with the pBK-CMV expression construct encoding the full length human capsaicin receptor using standard methods. The transfected cells are selected for two weeks in media containing G418 (400 μg/ml) to obtain a pool of stably transfected cells. Independent clones are isolated from this pool by limiting dilution to obtain clonal stable cell lines for use in subsequent experiments.
Cells transfected with expression plasmids (as described in Example 4) and thereby expressing human capsaicin receptor are seeded and grown to 70-90% confluency in FALCON black-walled, clear-bottomed 96-well plates (#3904, BECTON-DICKINSON, Franklin Lakes, N.J.). The culture medium is emptied from the 96 well plates and FLUO-3 AM calcium sensitive dye (Molecular Probes, Eugene, Oreg.) is added to each well (dye solution: 1 mg FLUO-3 AM, 440 μL DMSO and 440 μl 20% pluronic acid in DMSO, diluted 1:250 in Krebs-Ringer HEPES (KRH) buffer (25 mM HEPES, 5 mM KCl, 0.96 mM NaH2PO4, 1 mM MgSO4, 2 mM CaCl2, 5 mM glucose, 1 mM probenecid, pH 7.4), 50 μL diluted solution per well). Plates are covered with aluminum foil and incubated at 37° C. for 1-2 hours in an environment containing 5% CO2. After the incubation, the dye is emptied from the plates, and the cells are washed once with KRH buffer, and resuspended in KRH buffer.
To measure the ability of a test compound to agonize or antagonize a calcium mobilization response in cells expressing capsaicin receptors to capsaicin or other vanilloid agonist, the EC50 of the agonist capsaicin is first determined. An additional 20 μl of KRH buffer and 1 μl DMSO is added to each well of cells, prepared as described above. 100 μl capsaicin in KRH buffer is automatically transferred by the FLIPR instrument to each well. Capsaicin-induced calcium mobilization is monitored using either FLUOROSKAN ASCENT (Labsystems; Franklin, Mass.) or FLIPR (fluorometric imaging plate reader system; Molecular Devices, Sunnyvale, Calif.) instruments. Data obtained between 30 and 60 seconds after agonist application are used to generate an 8-point concentration response curve, with final capsaicin concentrations of 1 nM to 3 μM. KALEIDAGRAPH software (Synergy Software, Reading, Pa.) is used to fit the data to the equation: y=a*(1/(1+(b/x)^c)) to determine the 50% excitatory concentration (EC50) for the response. In this equation, y is the maximum fluorescence signal, x is the concentration of the agonist or antagonist (in this case, capsaicin), a is the Emax, b corresponds to the EC50 value and c is the Hill coefficient. Determination of Agonist Activity
Test compounds are dissolved in DMSO, diluted in 20 μl KRH buffer so that the final concentration of test compounds in the assay well is between 1 μM and 5 μM, and added to cells prepared as described above. The 96 well plates containing prepared cells and test compounds are incubated in the dark, at room temperature for 0.5 to 6 hours. It is important that the incubation not continue beyond 6 hours. Just prior to determining the fluorescence response, 100 μl capsaicin in KRH buffer at twice the EC50 concentration determined as described above is automatically added by the FLIPR instrument to each well of the 96 well plate for a final sample volume of 200 μl and a final capsaicin concentration equal to the EC50. The final concentration of test compounds in the assay wells is between 1 μM and 5 μM. […] The concentration of antagonist required to provide a 50% decrease, relative to the response observed in the presence of capsaicin and without antagonist, is the IC50 for the antagonist, and is preferably below 1 micromolar, 100 nanomolar, 10 nanomolar or 1 nanomolar.

T1 sequence (Q8NER1 whole entry): as above

Row | SMILES | pIC50
2 | COCc1nc2nc(-c3ncccc3C(F)(F)F)ccc2c2c1Oc1cc(C(F)(F)F)ccc1N2 [Compound 1, 6-Methoxymethyl-9-trifluoromethyl-3-(3-trifluoromethyl-pyridin-2-yl)-12H-7-oxa-4,5,12-triaza-benzo[a]anthracene] | ≥ 6.00
3 | COCc1nc2nc(-c3ncccc3C(F)(F)F)ccc2c2c1Oc1ccc(Cl)cc1N2 [Compound 3, 10-Chloro-6-methoxymethyl-3-(3-trifluoromethyl-pyridin-2-yl)-12H-7-oxa-4,5,12-triaza-benzo[a]anthracene] | ≥ 6.00
4 | COCc1nc2nc(-c3ncccc3C(F)(F)F)ccc2c2c1Oc1cc(S(C)(=O)=O)ccc1N2 [Compound 4, 9-Methanesulfonyl-6-methoxymethyl-3-(3-trifluoromethyl-pyridin-2-yl)-12H-7-oxa-4,5,12-triaza-benzo[a]anthracene] | ≥ 6.00
5 | COCc1nc2nc(-c3ncccc3C(F)(F)F)ccc2c2c1Oc1cc(C(C)(C)C)ccc1N2 [Compound 5, 9-tert-Butyl-6-methoxymethyl-3-(3-trifluoromethyl-pyridin-2-yl)-12H-7-oxa-4,5,12-triaza-benzo[a]anthracene] | ≥ 6.00
6 | FC(F)(F)c1ccc2c(c1)Oc1c(Cl)nc3nc(-c4ncccc4C(F)(F)F)ccc3c1N2 [Compound 6, 6-Chloro-9-trifluoromethyl-3-(3-trifluoromethyl-pyridin-2-yl)-12H-7-oxa-4,5,12-triaza-benzo[a]anthracene] | ≥ 6.00
7 | OCc1nc2nc(-c3ncccc3C(F)(F)F)ccc2c2c1Oc1cc(C(F)(F)F)ccc1N2 [Compound 7, [9-Trifluoromethyl-3-(3-trifluoromethyl-pyridin-2-yl)-12H-7-oxa-4,5,12-triaza-benzo[a]anthracen-6-yl]-methanol] | ≥ 6.00
8 | C[C@@H]1CN(Cc2nc3nc(-c4ncccc4C(F)(F)F)ccc3c3c2Oc2cc(C(F)(F)F)ccc2N3)C[C@H](C)O1 [Compound 8, 6-(2,6-Dimethyl-morpholin-4-ylmethyl)-9-trifluoromethyl-3-(3-trifluoromethyl-pyridin-2-yl)-12H-7-oxa-4,5,12-triaza-benzo[a]anthracene (cis)] | ≥ 6.00
9 | CC(C)COCc1nc2nc(-c3ncccc3C(F)(F)F)ccc2c2c1Oc1cc(C(F)(F)F)ccc1N2 [Compound 12, 6-Isobutoxymethyl-9-trifluoromethyl-3-(3-trifluoromethyl-pyridin-2-yl)-12H-7-oxa-4,5,12-triaza-benzo[a]anthracene] | ≥ 6.00

Next, values leading:

Row | pIC50 | SMILES
10 | ≥ 6.00 | CCCN(CCC)Cc1nc2nc(-c3ncccc3C(F)(F)F)ccc2c2c1Oc1cc(C(F)(F)F)ccc1N2 [Compound 9, Dipropyl-[9-trifluoromethyl-3-(3-trifluoromethyl-pyridin-2-yl)-12H-7-oxa-4,5,12-triaza-benzo[a]anthracen-6-ylmethyl]-amine]
11 | ≥ 6.00 | Cc1nc2nc(-c3ncccc3C(F)(F)F)ccc2c2c1Oc1cc(C(F)(F)F)ccc1N2 [Compound 10, 6-Methyl-9-trifluoromethyl-3-(3-trifluoromethyl-pyridin-2-yl)-12H-7-oxa-4,5,12-triaza-benzo[a]anthracene]
12 | ≥ 6.00 | FC(F)(F)c1ccc2c(c1)Oc1cnc3nc(-c4ncccc4C(F)(F)F)ccc3c1N2 [Compound 11, 9-Trifluoromethyl-3-(3-trifluoromethyl-pyridin-2-yl)-12H-7-oxa-4,5,12-triaza-benzo[a]anthracene]
13 | ≥ 6.00 | COCc1nc2nc(-c3ncccc3C(F)(F)F)ccc2c2c1Oc1cc(F)ccc1N2 [Compound 13, 9-Fluoro-6-methoxymethyl-3-(3-trifluoromethyl-pyridin-2-yl)-12H-7-oxa-4,5,12-triaza-benzo[a]anthracene]
14 | ≥ 6.00 | Cc1nc2cc(-c3ncccc3C(F)(F)F)ccc2c2c1Oc1ccccc1N2 [Compound 14, 6-Methyl-3-(3-trifluoromethyl-pyridin-2-yl)-12H-7-oxa-5,12-diaza-benzo[a]anthracene]
15 | ≥ 6.00 | COCc1nc2nc(-c3ncccc3C(F)(F)F)ccc2c2[nH]c3ccc(Cl)cc3c(=O)c12 [Compound 15, 9-Chloro-6-methoxymethyl-3-(3-trifluoromethyl-pyridin-2-yl)-12H-4,5,12-triaza-benzo[a]anthracen-7-one]
16 | ≥ 6.00 | COCc1nc2nc(-c3ncccc3C(F)(F)F)ccc2c2[nH]c3ccc(Br)cc3c(=O)c12 [Compound 16, 9-Bromo-6-methoxymethyl-3-(3-trifluoromethyl-pyridin-2-yl)-12H-4,5,12-triaza-benzo[a]anthracen-7-one]
17 | ≥ 6.00 | COCc1nc2nc(-c3ncccc3C(F)(F)F)ccc2c2c1C(O)c1cc(Br)ccc1N2 (centres unmarked) [Compound 17, 9-Bromo-6-methoxymethyl-3-(3-trifluoromethyl-pyridin-2-yl)-7,12-dihydro-4,5,12-triaza-benzo[a]anthracen-7-ol]
